In patent publication US4898729A, “Treatment of hypertension, compounds and compositions for antihypertension and diuresis” (priority 1983, dated 1990):
Read-outs that look alike come from different tables or passages of the source.

Legend:
[1] = cited from earlier work; for Approx. Natriuretic Activity: comparison with chlorothiazide having a value of 1; for Potency as diuretic and natriuretic agent relative to chlorothiazide: chlorothiazide being one
[2] = cited from earlier work; for Range diuretic dose: Example 1 table
[3] = test system: plasma proteins; details: cited from earlier work
[4] = in vivo; cited from earlier work
[5] = test system: carbonic anhydrase; details: cited from earlier work
[6] = Clinical antihypertensive action dissociated from diuresis; format: in vivo, humans
Method: Such dosage was preferably administered at hourly intervals over a period of from 4 to 8 hours to hypertensive patients.

Molecule | Approx. Natriuretic Activity [1] | Range diuretic dose [2] [mg] | Daily Diuretic Dose (average minimum diuretic dose) [2] [mg] | Binding to plasma proteins [3] | also measured
NS(=O)(=O)c1cc2c(cc1C(F)(F)F)NC(Cc1ccccc1)NS2(=O)=O (centres unmarked) [Bendroflumethiazide] | 100 | 2 to 5 | 20 | proportionately high binding to plasma proteins | –
NS(=O)(=O)c1cc2c(cc1Cl)N=C(CSCc1ccccc1)NS2(=O)=O [Benzthiazide] | 10 | 25 to 50 | 200 | – | Clinical alkalinization of urine [4]: does not cause an appreciable clinical alkalinization of urine; Carbonic anhydrase inhibition, in words [5]: relatively potent carbonic anhydrase inhibitor
NS(=O)(=O)c1cc2c(cc1Cl)NC(CC1CCCC1)NS2(=O)=O (centres unmarked) [Cyclopenthiazide] | 1000 | 1 to 6 | 2 | proportionately high binding to plasma proteins | Potency as diuretic and natriuretic agent relative to chlorothiazide [1]: thousand times more potent; Potency as diuretic and natriuretic agent relative to chlorothiazide ([1]; listed as cyclopenthiazide): a thousand; Daily Diuretic Dose (average minimum diuretic dose) ([2]; listed as cyclopenthiazide): about 2 mg
NS(=O)(=O)c1cc2c(cc1Cl)NC(C1CC3C=CC1C3)NS2(=O)=O (centres unmarked) [Cyclothiazide] | 500 | 1 to 6 | 2 | proportionately high binding to plasma proteins | Daily Diuretic Dose (average minimum diuretic dose) ([2]; listed as cyclothiazide): about 2 mg
NS(=O)(=O)c1cc2c(cc1C(F)(F)F)N=CNS2(=O)=O [Flumethiazide] | 1 | 50 to 1000 | 200 | – | –
NS(=O)(=O)c1cc2c(cc1Cl)NCNS2(=O)=O [Hydrochlorothiazide] | 10 | 25 to 100 | 200 | – | –
CN1C(CCl)Nc2cc(Cl)c(S(N)(=O)=O)cc2S1(=O)=O (centres unmarked) [Methyclothiazide] | 100 | 5 to 10 | 10 | proportionately high binding to plasma proteins | –
CN1C(CSCC(F)(F)F)Nc2cc(Cl)c(S(N)(=O)=O)cc2S1(=O)=O (centres unmarked) [Polythiazide] | – | – | – | proportionately high binding to plasma proteins | –
NS(=O)(=O)c1cc2c(cc1Cl)NC(C(Cl)Cl)NS2(=O)=O (centres unmarked) [Trichlormethiazide] | 200 | 4 to 8 | 8 | proportionately high binding to plasma proteins | –
amiloride-hydrochlorothiazide salt | – | – | – | – | Diuretic response at the antihypertensive daily dose ([6]; at the daily dose of b165): without diuresis; Daily dose to achieve an antihypertensive effect ([6]; dose of active ingredients per day): about 50 mg
